Measurements reported in US20010011084A1, “USE OF ESTROGEN TO MODIFY THE AMOUNT OF SEROTONIN TRANSPORTER OR ITS MRNA” (priority 1996, published 2001).

How the values were obtained:
luteinizing hormone (LH) = assay: Plasma r-LH in trunk blood by radioimmunoassay; type: in vivo, rat; details: presumptive proestrus, OVX rats, 10 μg s.c., mean±sem, n=7
uterine horns = assay: Examination of the uterine horns; type: in vivo, rat; details: OVX rats, 10 μg s.c., next day
[1] = 10 μg EB s.c., for up to 30 h in ovariectomized rats; cited from earlier work

For `C[C@]12CC[C@@H]3c4ccc(OC(=O)c5ccccc5)cc4CC[C@H]3[C@@H]1CC[C@@H]2O` [EB, estradiol benzoate], the “Plasma r-LH levels” value (luteinizing hormone (LH)) is listed as 7.5 ± 3.1 ng/mL, the uterine horns (uterine horns) is listed as “markedly distended with fluid” and the “blood levels of E2” value [1] is listed as 100-120 pg E2/ml.
